19 compounds from US20240408088A1, “PYRAZOLE DERIVATIVE, AND PREPARATION METHOD THEREFOR AND USE THEREOF IN MEDICINE” (Abbisko Therapeutics Co., Ltd., priority 2021, published 2024) can be followed below.

For one test, the system named is HCT 116 MTAP knockout cells. In words: Human colon cancer HCT116 cell proliferation inhibition test (MTAP knockout cells, CellTiter-Glo, 6 days). The format is cell-based.
Conditions: not given
As for the experimental part: • 1. HCT 116 MTAP knockout and MTAP wild-type cells were plated in 96-well flat bottom 5 plates, and cultured overnight with McCoy's 5A medium containing […]+1% penicillin-streptomycin at 37° C. and 5% CO2. • 2. On the next day, the compound was dissolved with DMSO, diluted with DMSO and medium successively and transferred to the cell plate. The final concentration of the compound was 10 μM, the compound was diluted 4 times, with 9 concentration gradients, and DMSO control was added. • 3. Cells that have not been treated with the compound were removed. CellTiter-Glo Luminescent Cell Viability Assay (Promega) was used to detect cell viability, the operation was performed with reference to the package insert of the kit, and then the cell plate was placed on EnVision Multilabel Reader to detect the cold light signal. • 4. Meanwhile, the cell plate treated with the compound was cultured at 37° C. and 5% CO2 for 6 consecutive days. • 5. Then, CellTiter-Glo was also used to detect cell viability. • 6. Finally, the four-parameter dose-response curve module of GraphPad Prism v 9.2.0 software was used to plot the dose-response curve and calculate the IC50 for proliferation inhibition (unit: nM).
In the case of `Cn1ncc(-c2cc(C#N)c3c(=O)[nH]nc(CN)c3c2)c1-c1c(F)cc2ccccc2c1C#N` (atropisomer, axis not shown; (M)) [Example 5, (M)-1-(aminomethyl)-7-(5-(1-cyano-3-fluoronaphthalen-2-yl)-1-methyl-1H-pyrazol-4-yl)-4-oxo-3,4-dihydrophthalazine-5-carbonitrile], half-maximal inhibition (IC50) required 0.016 µM. This counts as double-digit nanomolar.

Still in this test, the particulars now being: Homo sapiens, HCT-116, 144 h.
Take `Cn1ncc(-c2ccc3c(=O)[nH]nc(CN)c3c2)c1-c1c(F)c(Cl)cc(OC2CC(F)(F)C2)c1C#N` [Example 37, 2-(4-(4-(aminomethyl)-1-oxo-1,2-dihydrophthalazin-6-yl)-1-methyl-1H-pyrazol-5-yl)-4-chloro-6-(3,3-difluorocyclobutoxy)-3-fluorobenzonitrile]: half-maximal inhibition (IC50) was put at 0.133 µM.

For the compound `Cn1ncc(-c2ccc3c(=O)[nH]nc(CN)c3c2)c1-c1c(F)c(N2CCOCC2)cc(OC2CC2)c1C#N` [Example 15, 2-(4-(4-(aminomethyl)-1-oxo-1,2-dihydrophthalazin-6-yl)-1-methyl-1H-pyrazol-5-yl)-6-cyclopropoxy-3-fluoro-4-morpholinobenzonitrile], the IC50 was 0.1 µM.

Turning to `C#Cc1cc(-c2cnn(C)c2-c2c(F)c(Cl)cc(OC3CC3)c2C#N)cc2c(CN)n[nH]c(=O)c12` [Example 7, 2-(4-(4-(aminomethyl)-8-ethynyl-1-oxo-1,2-dihydrophthalazin-6-yl)-1-methyl-1H-pyrazol-5-yl)-4-chloro-6-cyclopropoxy-3-fluorobenzonitrile], half-maximal inhibition (IC50) required 0.027 µM.

Turning to `CN(C)C1CCN(c2cc(OC3CC3)c(C#N)c(-c3c(-c4ccc5c(=O)[nH]nc(CN)c5c4)cnn3C)c2F)C1` (stereo not shown) [Example 27, 2-(4-(4-(aminomethyl)-1-oxo-1,2-dihydrophthalazin-6-yl)-1-methyl-1H-pyrazol-5-yl)-6-cyclopropoxy-4-(3-(dimethylamino)pyrrolidin-1-yl)-3-fluorobenzonitrile], the IC50 was 0.262 µM.

In the case of `Cn1ncc(-c2cc(C3CC3)c3c(=O)[nH]nc(CN)c3c2)c1-c1c(F)c(Cl)cc(N2CCCC2)c1C#N` [Example 11, 2-(4-(4-(aminomethyl)-8-cyclopropyl-1-oxo-1,2-dihydrophthalazin-6-yl)-1-methyl-1H-pyrazol-5-yl)-4-chloro-3-fluoro-6-(pyrrolidin-1-yl)benzonitrile], 0.184 µM corresponded to half-maximal inhibition (IC50).

For `Cn1ncc(-c2cc(-c3ccccc3)c3c(=O)[nH]nc(CN)c3c2)c1-c1c(F)c(Cl)cc(OC2CC2)c1C#N` [Example 13, 2-(4-(4-(aminomethyl)-1-oxo-8-phenyl-1,2-dihydrophthalazin-6-yl)-1-methyl-1H-pyrazol-5-yl)-4-chloro-6-cyclopropoxy-3-fluorobenzonitrile], the midpoint of inhibition, the IC50, lay at 0.122 µM.

Compound `CN(C)C1CN(c2cc(OC3CC3)c(C#N)c(-c3c(-c4ccc5c(=O)[nH]nc(CN)c5c4)cnn3C)c2F)C1` [Example 24, 2-(4-(4-(aminomethyl)-1-oxo-1,2-dihydrophthalazin-6-yl)-1-methyl-1H-pyrazol-5-yl)-6-cyclopropoxy-4-(3-(dimethylamino)azetidin-1-yl)-3-fluorobenzonitrile] showed an IC50 of 0.229 µM.

As to `Cn1ncc(-c2ccc3c(=O)[nH]nc(CN)c3c2)c1-c1c(F)c(Cl)cc(N2CC(F)C2)c1C#N` [Example 34, 2-(4-(4-(aminomethyl)-1-oxo-1,2-dihydrophthalazin-6-yl)-1-methyl-1H-pyrazol-5-yl)-4-chloro-3-fluoro-6-(3-fluoroazetidin-1-yl)benzonitrile], the IC50 was determined as 0.084 µM.

Take `Cn1ncc(-c2ccc3c(=O)[nH]nc(CN)c3c2)c1-c1c(F)c(Cl)cc(N2CC(C)(O)C2)c1C#N` [Example 35, 2-(4-(4-(aminomethyl)-1-oxo-1,2-dihydrophthalazin-6-yl)-1-methyl-1H-pyrazol-5-yl)-4-chloro-3-fluoro-6-(3-hydroxy-3-methylazetidin-1-yl)benzonitrile]: the IC50 was 0.922 µM.

As for `C#Cc1cc(-c2cnn(C)c2-c2c(F)c(Cl)cc(N3CCCC3)c2C#N)cc2c(CN)n[nH]c(=O)c12` [Example 10, 2-(4-(4-(aminomethyl)-8-ethynyl-1-oxo-1,2-dihydrophthalazin-6-yl)-1-methyl-1H-pyrazol-5-yl)-4-chloro-3-fluoro-6-(pyrrolidin-1-yl)benzonitrile], half-maximal inhibition (IC50) was put at 0.012 µM.

The compound `Cn1ncc(-c2ccc3c(=O)[nH]nc(CN)c3c2)c1-c1c(F)c(N2CCC(O)C2)cc(OC2CC2)c1C#N` (stereo not shown) [Example 25, 2-(4-(4-(aminomethyl)-1-oxo-1,2-dihydrophthalazin-6-yl)-1-methyl-1H-pyrazol-5-yl)-6-cyclopropoxy-3-fluoro-4-(3-hydroxypyrrolidin-1-yl)benzonitrile] registered an IC50 of 0.567 µM.

Consider `Cn1ncc(-c2ccc3c(=O)[nH]nc(CN)c3c2)c1-c1c(F)c(N2CCC2)cc(OC2CC2)c1C#N` [Example 17, 2-(4-(4-(aminomethyl)-1-oxo-1,2-dihydrophthalazin-6-yl)-1-methyl-1H-pyrazol-5-yl)-4-(azetidin-1-yl)-6-cyclopropoxy-3-fluorobenzonitrile], for which the midpoint of inhibition, the IC50, lay at 0.113 µM. This IC50 lies about 5-fold lower than the previous one.

In the case of `Cn1ncc(-c2ccc3c(=O)[nH]nc(CN)c3c2)c1-c1c(F)c(Cl)cc(N2CCCCC2)c1C#N` [Example 22, 2-(4-(4-(aminomethyl)-1-oxo-1,2-dihydrophthalazin-6-yl)-1-methyl-1H-pyrazol-5-yl)-4-chloro-3-fluoro-6-(piperidin-1-yl)benzonitrile], the IC50 was found to be 0.116 µM. This IC50 and that of the compound before are within 1.5-fold of each other.

`CC1CCCN1c1cc(Cl)c(F)c(-c2c(-c3ccc4c(=O)[nH]nc(CN)c4c3)cnn2C)c1C#N` (stereo not shown) [Example 20, 2-(4-(4-(aminomethyl)-1-oxo-1,2-dihydrophthalazin-6-yl)-1-methyl-1H-pyrazol-5-yl)-4-chloro-3-fluoro-6-(2-methylpyrrolidin-1-yl)benzonitrile] returned an IC50 of 0.061 µM.

Regarding `Cn1ncc(-c2ccc3c(=O)[nH]nc(CN)c3c2)c1-c1c(F)c(Cl)cc(N2CC3(C2)CC(F)(F)C3)c1C#N` [Example 31, 2-(4-(4-(aminomethyl)-1-oxo-1,2-dihydrophthalazin-6-yl)-1-methyl-1H-pyrazol-5-yl)-4-chloro-6-(6,6-difluoro-2-azaspiro[3.3]heptan-2-yl)-3-fluorobenzonitrile], the IC50 is 0.093 µM.

As to `Cn1ncc(-c2ccc3c(=O)[nH]nc(CN)c3c2)c1-c1c(F)c(Cl)cc(N2CCC2)c1C#N` [Example 32, 2-(4-(4-(aminomethyl)-1-oxo-1,2-dihydrophthalazin-6-yl)-1-methyl-1H-pyrazol-5-yl)-6-(azetidin-1-yl)-4-chloro-3-fluorobenzonitrile], 0.057 µM corresponded to half-maximal inhibition (IC50). This IC50 is about 1.6-fold lower than that of the compound before.

`Cn1ncc(-c2ccc3c(=O)[nH]nc(CN)c3c2)c1-c1c(F)c(Cl)cc(N2C3CCC2CC3)c1C#N` [Example 21, 2-(4-(4-(aminomethyl)-1-oxo-1,2-dihydrophthalazin-6-yl)-1-methyl-1H-pyrazol-5-yl)-6-(7-azabicyclo[2.2.1]heptan-7-yl)-4-chloro-3-fluorobenzonitrile] showed an IC50 of 0.161 µM.

The compound `Cn1ncc(-c2cnc3c(=O)[nH]nc(CN)c3c2)c1-c1c(F)cc2ccccc2c1C#N` [Example 12, 2-(4-(5-(aminomethyl)-8-oxo-7,8-dihydropyrido[2,3-d]pyridazin-3-yl)-1-methyl-1H-pyrazol-5-yl)-3-fluoro-1-naphthalenenitrile] returned an IC50 of 1.97 µM.
